Marks after values point to notes of the source that are not given here.
Assays:
[1] = tested on: Male Sprague-Dawley rats; experiment: Gastric tolerability (safety); format: in vivo; details: 24 h, lesion scale 0 = absent to 4 = severe and numerous ulcers
Protocol: Male Sprague-Dawley rats fasted for 24 hours were treated with 5 to 10 mg/kg of intraperitoneal hydrocortisone or HCN.
Twenty-four hours later the animals were sacrified, the stomach was removed and tissue was grossly examined for the presence of lesions as described by Del Soldato et al.: “The influence of fasting and cimetidine on the relationship between ulcerogenic and anti-inflammatory properties of […]”, Br.J.Pharmacol. 67, 33-37, 1979. The degree of severity of the disease was evaluated according to common methods and expressed as arbitrary values.

[2] = tested on: male rats of Lewis strain; experiment: Antiarthritic activity, adjuvant arthritis induced by Mycobacterium butyricum; format: in vivo; details: day 21, inhibition of arthritis score vs vehicle group
[3] = tested on: mice of the Swiss strain; experiment: Acute toxicity study, single oral dose; format: in vivo; details: single oral dose 50 mg/kg, 10 Swiss mice, 14 days observation
Source text: The acute toxicity of the product from Example 1A was roughly evaluated by orally administering a single dose of substance to a group of 10 mice of the Swiss strain.
Death incidence and appearance of toxic symptoms were observed during a period of 14 days after the compound administration.

[4] = tested on: parietal bone from rat foetus; experiment: Bone toxicity, bone tissue grown in vitro; format: cell-based; details: 10 nmol (table), 96 h incubation, compared to initial value
Protocol: Bone tissues (parietal bone from rat foetus) grown in vitro according to the method described by Doherty et al. (“The effect of glucocorticoids on osteoblast function. The effect of corticosterone on osteoblast, expression of beta-I integrins”, Journal of Bone and Joint Surgery, Series A77/3, 396-404, 1995) was used. […]
Ninety six hours later calcium content and bone dry weight were measured.

[5] = tested on: Male Wistar rats; experiment: Angiostatic activity, rat sponge model, 133Xe clearance; format: in vivo; details: for SPLEEN weight / THYMUS weight: 10 mg/kg s.c. day 1 to 13, day 14; for 133Xe clearance (%): 10 mg/kg s.c. day 1 to 13, measured at day 14, clearance for 6 minutes as % of initial value
[6] = tested on: conscious Long Evans rats; experiment: Cardiovascular parameters in conscious rats; format: in vivo; details: 10 mg/kg s.c., 4 h after treatment; for BLOOD PRESSURE: compared to vehicle group (101 ± 2 mm Hg); for HEART RATE (%): compared to vehicle group (324 ± 7 beats per minute)
Protocol: The effect of the test products on some cardiovascular parameters was studied in conscious Long Evans rats (350 to 450 g) which were appropriately monitored, as described by Gardiner et al.: “Influence of dexamethasone on the regional haemodynamic responses to lipopolysaccharide in conscious rats: effect of the non-selective endothelin antagonist: SB 209670”, Br.J. Pharmacology 117, 49P, 1996. The animals were treated with the vehicle (physiologic saline solution, 0,9% sodium chloride, s.c.) subcutaneous hydrocortisone or HCN (10 mg/kg). Heart rate and blood pressure were recorded 4 hours after treatment.

[7] = tested on: nitroxysynthetase; experiment: LPS-induced nitroxysynthetase activity in rat neutrophils and stomach; format: in vivo, rats; details: 10 mg/kg i.p., LPS 5 mg/kg i.v., 4 h; compared to vehicle group (vehicle = 100)

With `C[C@]12CCC(=O)C=C1CC[C@@H]1[C@@H]2[C@@H](O)C[C@@]2(C)[C@H]1CC[C@]2(O)C(=O)COC(=O)CCCO[N+](=O)[O-]` [HCN, Hydrocortisone 4-Nitroxybutanoate] the “GASTRIC TOLERABILITY” value ([1]; 5 mg/kg i.p.) was 0.5* arbitrary values, the “GASTRIC TOLERABILITY” value ([1]; 10 mg/kg i.p.) was 1.2* arbitrary values and the “ANTIARTHRITIC ACTIVITY (%)” value ([2]; 5 mg/kg i.p.) was 45%. For the same molecule, the “ANTIARTHRITIC ACTIVITY (%)” value ([2]; 10 mg/kg i.p.) was 62%, the “Acute toxicity (death incidence and toxic symptoms)” value [3] was “no sign of apparent toxicity” and the “Calcium Δ%” value [4] was 287%. The “DRY TISSUE WEIGHT Δ%” value [4] was 149%, the “SPLEEN weight” value [5] was 673 ± 38 mg and the “THYMUS weight” value [5] was 297 ± 31 mg. The “133Xe clearance (%)” value [5] was 22* %, the “BLOOD PRESSURE” value [6] was 103 per-cent and the “HEART RATE (%)” value [6] was 98%. For the same molecule, the “NITROXYSYNTHETASE ACTIVITY” value [7] was 62* per cent.

In the case of `C[C@]12CCC(=O)C=C1CC[C@@H]1[C@@H]2[C@@H](O)C[C@@]2(C)[C@H]1CC[C@]2(O)C(=O)CO` [HYDROCORTISONE, hydrocortisone, reference compound], the “GASTRIC TOLERABILITY” value ([1]; 5 mg/kg i.p.) is reported as 2.0 arbitrary values, the “GASTRIC TOLERABILITY” value ([1]; 10 mg/kg i.p.) is reported as 3.5 arbitrary values and the “ANTIARTHRITIC ACTIVITY (%)” value ([2]; 5 mg/kg i.p.) is reported as 40%. For the same molecule, the “ANTIARTHRITIC ACTIVITY (%)” value ([2]; 10 mg/kg i.p.) was 55%, the “Calcium Δ%” value [4] was 70° % and the “DRY TISSUE WEIGHT Δ%” value [4] was 95° %. The “SPLEEN weight” value [5] was 642 ± 32 mg, the “THYMUS weight” value [5] was 185 ± 17 mg and the “133Xe clearance (%)” value [5] was 33%. The “BLOOD PRESSURE” value [6] was 115* per-cent, the “HEART RATE (%)” value [6] was 89* % and the “NITROXYSYNTHETASE ACTIVITY” value [7] was 55* per cent.
